Test results reported in patent US10723726B2, “Solid forms of (Z)-4-(5-((3-benzyl-4-oxo-2-thioxothiazolidin-5-ylidene)methyl)furan-2-yl)benzoic acid” (GB006, INC., priority 2015, dated 2020).
Entries after “also recorded” stand apart in the source; their conditions may differ. Counter-ions that a name gives are not always drawn. Like-named read-outs stand apart in the source and are kept apart here. One block for each compound: values may come before it.

Assays:
[1] = in vivo; details: male, Sprague-Dawley, rat
Description: (§1) In a second experiment, the dose solution was prepared in Tween-80 (0.02%) and 0.5% methyl cellulose in Milli-Q water. IP (2 mg/kg) and IV (1 mg/kg) dose solutions were prepared in a 5% DMSO and 95% PEG-200.
(§2) The PO (2 mg/kg) dose solution was prepared in Tween-80 (0.02%) and 0.5% methyl cellulose in Milli-Q water. The IV (1 mg/kg) dose solution was prepared in a solution of 5% DMSO and 95% PEG-200.
(§3) The routes of administration were namely PO (gavage), IP (bolus) and IV (bolus through tail vein). A total of four SD male rats were used aged between 5-6 weeks. The feeding regimen included 12 h fasting and the feed was provided 2 hrs after the dosage inoculation and water was provided ad libidum. The blood collection schedule for PO/IP was at 0.25, 0.5, 1, 2, 4, 8, 10 and 24 h, and for IV it was at 0.12, 0.25, 0.5, 1, 2, 4, 8 and 24 h. For PO dosage, tween-80 (0.02%) and 0.5% methyl cellulose prepared in milli-Q water were used as vehicles; for IP and IV dosage 5% DMSO and 95% PEG-200 were used as vehicles.
(§4) Stock solution (178 μg/mL) in methanol was further diluted using methanol: water (80:20, v/v) to obtain working solutions in the range of 10.4 to 20745 ng/mL.
(§5) 50 μL of sample was aliquoted in to pre-labeled vials. To it was added 200 μL of 10% tetrahydrofuran containing IS (100 ng/mL; tolbutamide) and mixed well, vortexed for 5 min followed by centrifugation for 5 min at 14000 rpm for at 4° C. Supernatant was separated and 5 μL of same was injected on LC-MS/MS.
(§6) Data Analysis: Individual concentration-time data were analyzed using WinNonlin (Version 5.3) by non-compartmental analysis (NCA) method.
(§7) The routes of administration were namely PO (gavage) and IV (bolus through tail vein). A total of four SD male rats were used aged between 5-6 weeks. The feeding regimen included 12 h fasting and the feed was provided 2 hrs after the dosage inoculation and water was provided ad libitum. The blood collection schedule for PO was at 0.25, 0.5, 1, 2, 4, 8, 10 and 24 h, and for IV it was at 0.12, 0.25, 0.5, 1, 2, 4, 8 and 24 h. For PO dosage, tween-80 (0.02%) and 0.5% methyl cellulose prepared in milli-Q water were used as vehicles; for IV dosage 10% DMSO and 90% PEG-200 were used as vehicles.

[2] = male, in vivo
Description: as §1, §2, §3, §4, §5, §6, §7

[3] = in vivo; details: male, dog; for AUC0-t: AUC0-12 h
Description: The PO (2 mg/kg) dose solution of micronized LA1 was prepared in 0.1% Tween-80 0.5% (w/v) and methyl cellulose in water.
The objective of the study was to investigate the preclinical pharmacokinetic profile of LA1 (micronized powder) in Beagle dog. To delineate the plasma concentration vs. time curve and characterize the relevant pharmacokinetic parameters to generate data on the PK properties viz., bioavailability, half-life (b1/2), volume of distribution, Cmax, Tmax, AUC and elimination rate constant of LA1 in Beagle dog.
LA1 was a coarse material which was micronized using laboratory scale ball mill. […] The micronized LA1 was recovered, weighed and stored in glass container at room temperature. For intravenous drug administration, LA1 excipient compatibility assay for dosing in dogs were carried out.
In brief, a known amount of LA1 was loaded to a cylindrical capped container made of stainless steel followed by addition of stainless steel balls. The ball mills were rotated on their axis for total of 60 minutes (6 cycles X 10 minutes). The micronized LA1 was recovered, weighed and stored in glass bottle at room temperature.
Test system: Healthy Beagle dog weighing 10-12 kg (age 10 months), males were used for the study. Crossover design was adopted for the experiments wherein 02 dogs were used in the study for oral and intravenous administration. Both the animals were housed stainless steel cage provided with a hopper to hold pellet feed and a separate water hopper. Temperature and humidity was maintained at 22±3° C. and 40-70%, respectively. The illumination was controlled to give a sequence of 12 h light and 12 h dark cycle. All the animals were adapted to the experimental conditions for at least 5 days prior to dosing. All animals were provided with Pedigree™ standard pellet feed, except for 10 to 12 h before treatment and 4 h after the drug administration. Water was provided ad libidum.
Formulation and drug administration: Exactly 90 mg of the test item LA1 (micronized powder) was weighed and transferred to a mortar and briefly triturated with pestle. Small volume of vehicle [0.5% (w/v) Carboxy methyl cellulose with 0.1% Tween-80] in water was then added slowly with continuous trituration until a uniform suspension was obtained. The content was then transferred into the measuring cylinder. The mortar was rinsed till the complete transfer of test item into the measuring cylinder was ensured. The final volume was then made up to 225 mL with vehicle to get a uniform suspension with desired concentration of 0.4 mg/mL. Dosing formulations were given by oral gavage at a dose volume not exceeding 5 mL/kg.
Intravenous drug formulation: Hemolysis assay using dog whole blood was employed to assess the damage of red blood cells for selection of excipient for intravenous dosing. […] Exactly 22.5 mg of the test item (micronized powder) was weighed into a graduated tube. 2.25 mL of DMSO was added drop wise and mixed by vortex. Then, 40.50 mL of Polyethylene glycol 400 (PEG-400) was added in two to three fragments and vortex intermittently. Then 2.25 mL Ethanol was added drop wise and vortex to get clear solution. The formulation was subjected to ultra-sonication for 5 minutes.
Sample collection: Serial method was used for blood sampling. Blood samples were collected as mentioned in the study design section (7). The blood sample (−1.5 mL) was collected from saphenous vein into labeled tubes, containing 2% w/v K2EDTA solution, as an anticoagulant.

[4] = Humidity stress at 40° C./75% RH; assay type: physicochemical; details: 5-6 days
Description: The larger vials were capped, sealed with Parafilm and placed inside an oven at 40° C. for up to 6 days. Salts were then removed from these conditions and changes observed (e.g. color, deliquescence etc.) before being analyzed for weight change and by XRPD. Samples were examined visually after stressing, form composition confirmed by XRPD analysis and weight change recorded (Table 7).

[5] = tested on: murine melanoma B16-F10 tumors; experiment: Murine melanoma B16F10 allograft efficacy (Example 19); assay type: in vivo, C57BL/6 mice; details: 3 or 30 mg/kg daily for 15 days
Description: TUMOR CELLS. B16-F10 cells were cultured in DMEM cell culture medium supplemented with 10% FBS and 1% penicillin-streptomycin. The cells were maintained at 37° C. in […]. When the cells reached 75-80% confluence, they were harvested by trypsinization, washed, and counted. The cells were then re-suspended in serum free medium at a concentration of 0.1 million cells/75 μl.
TUMOR CELL INOCULATION. Cells were inoculated subcutaneously on the flank of black mice. Prior to inoculation, hair was trimmed and skin on the injection site (dorsal right flank) was swabbed with alcohol. Cells in serum free medium (0.1 million cells/75 μl) were mixed with Matrigel at a ratio of 3:1 and a total volume of 100 μl was injected into each animal with a 1 mL BD syringe attached to a 26 G needle.
RANDOMIZATION. Tumors were palpable around Day 7 of inoculation.
STATISTICAL CALCULATIONS. All statistical calculations were performed using Prism 5.0 (GraphPad Software Inc., USA). Comparisons of tumor size measurements during and at the termination of the study were made between the treatment groups and respective vehicle control groups using One Way ANOVA followed by Dunnett's multiple comparison tests. A p-value of less than 0.05 was considered significant.

[6] = Histopathology (Example 19); assay type: in vivo, C57BL/6 mice; details: also seen in one animal of the control group
Description: HISTOPATHOLOGY. Histopathological examination was conducted using liver, kidney, lung, spleen, heart, and stomach samples.

[7] = Aqueous solubility by equilibration, HPLC analysis; assay type: physicochemical; details: for Appearance / Soln pH: after slurrying in water 4-5 days; for HPLC purity (%): after slurrying in water 4-5 days (chemical stability)
Description: An aliquot of the UHQ water test solvent (1 mL) was added to an accurately weighed sample of the LA1 salts and agitated at ambient temperature for a period of 4 days. A sample was withdrawn, filtered through a […], and analyzed by HPLC. HPLC was used to determine aqueous equilibrium solubility at ambient temperature. […] Samples were slurried in water for 4-5 days before analysis.

[8] = Sprague-Dawley, rat, iv, 1 mg/kg
[9] = Sprague-Dawley, rat, po, 2 mg/kg
[10] = beagle, iv, 0.5 mg/kg, Plasma concentration
[11] = beagle, po, 0.5 mg/kg, Plasma concentration
[12] = Sprague-Dawley, rat, ip, 2 mg/kg

AUC ([1]; po, 2 mg/kg, AUC (with PO bioavailability)): 0.76 µM·h
AUC ([1]; po, 2 mg/kg, AUC in mM*hr): 0.76 µM·h
MRT ([1]; po, 2 mg/kg, MRT (hr)): 2.04 h
bioavailability ([1]; po, 2 mg/kg, Rat F %): 23%
half-life ([1]; po, 2 mg/kg, t1/2 (hr)): 66 min
Rat Cl ([2]; Sprague-Dawley): 23.4 mL/min/kg
Vss ([2]; Sprague-Dawley, rat): 2.14 L/kg
AUC0-t [2, 8]: 715 ng·h/mL
AUC0-∞ [2, 8]: 729 ng·h/mL
C0 [2, 8]: 1025 ng/mL
MRT [2, 8]: 1.47 h
Tlast [2, 8]: 12.0 h
Vd [2, 8]: 2.63 L/kg
AUC0-t [2, 9]: 319 ng·h/mL
AUC0-∞ [2, 9]: 336 ng·h/mL
Tlast [2, 9]: 6.50 h
Tmax [2, 9]: 52.8 min
concentration at 12 h ([3]; Beagle, iv, 0.5 mg/kg, Plasma concentration): 7.93 ng/mL
bioavailability ([3]; beagle, Absolute oral bioavailability): 50.6%
clearance ([3]; beagle, Dog Cl (ml/min/kg)): 2.1 mL/min/kg
bioavailability ([3]; beagle, Dog F % (absolute oral bioavailability)): 50%
AUC0-t ([3]; beagle, iv, 0.5 mg/kg): 1330 ng·h/mL
AUC(0-inf) ([3]; beagle, iv, 0.5 mg/kg, AUC0-inf): 1350 ng·h/mL
AUC(0-inf) ([3]; beagle, iv, 0.5 mg/kg, AUCinf): 1350 ng·h/mL
C0 ([3]; beagle, iv, 0.5 mg/kg, C0): 1330 ng/mL
Cmax ([3]; beagle, iv, 0.5 mg/kg, Co/Cmax): 2040 ng/mL
concentration at 0.05 h [3, 10]: 1570 ng/mL
concentration at 0.1 h [3, 10]: 897 ng/mL
concentration at 0.25 h [3, 10]: 717 ng/mL
concentration at 0.5 h [3, 10]: 505 ng/mL
concentration at 1 h [3, 10]: 405 ng/mL
bioavailability ([3]; beagle, po, 0.5 mg/kg, Absolute Bioavailability F %): 50.6%
concentration at 4 h [3, 11]: 660 ng/mL
concentration at 6 h [3, 11]: 211 ng/mL
concentration at 8 h [3, 11]: 118 ng/mL
concentration at 12 h [3, 11]: 37.5 ng/mL
AUC(0-inf) ([3]; beagle, po, 2 mg/kg, AUCinf): 2690 ng·h/mL
Cmax ([3]; beagle, po, 2 mg/kg, Cmax): 685 ng/mL
half-life ([3]; beagle, po, 2 mg/kg): 127 min
Tmax ([3]; beagle, po, 3 mg/kg): 4 h
AUC0-t ([3]; beagle, po, 3 mg/kg): 2570 ng·h/mL
AUC(0-inf) ([3]; beagle, po, 3 mg/kg, AUC0-inf): 2690 ng·h/mL
Cmax ([3]; beagle, po, 3 mg/kg, Co/Cmax): 685 ng/mL
half-life ([3]; beagle, po, 3 mg/kg): 127 min
Compound: O=C(O)c1ccc(-c2ccc(/C=C3\SC(=S)N(Cc4ccccc4)C3=O)o2)cc1 [LA1 (micronized)]

Weight gain (%) [4]: 1.4%
XRPD after stressing [4]: No change
bioavailability ([1]; F (absolute oral bioavailability)): 37%
MRT ([1]; po, 2 mg/kg, MRT): 1.54 h
half-life ([1]; po, 2 mg/kg, t1/2,ß): 96 min
Tmax ([1]; po, 2 mg/kg, tmax): 30 min
Rat Cl ([2]; Sprague Dawley, iv, 1 mg/kg): 17.5 mL/min/kg
Vss ([2]; Sprague Dawley, rat): 0.74 L/kg
Rat Cl ([2]; Sprague-Dawley): 18 mL/min/kg
Rat F % ([2]; Sprague-Dawley, ip, 2 mg/kg): 167%
Rat Cl ([2]; Sprague-Dawley, iv, 1 mg/kg): 17.5 mL/min/kg
Rat F % ([2]; Sprague-Dawley, po, 2 mg/kg): 37.1%
% F (absolute IP bioavailability) ([2]; Sprague-Dawley, rat): > 100%
F (absolute oral bioavailability) ([2]; Sprague-Dawley, rat): 37.1%
Vss ([2]; Sprague-Dawley, rat): 0.74 L/kg
AUC0-t [2, 12]: 3252 ng·h/mL
AUC0-∞ [2, 12]: 3270 ng·h/mL
Tlast [2, 12]: 17.0 h
Tmax [2, 12]: 15 min
AUC0-t [2, 8]: 967 ng·h/mL
AUC0-∞ [2, 8]: 978 ng·h/mL
C0 [2, 8]: 2142 ng/mL
MRT [2, 8]: 0.91 h
Tlast [2, 8]: 8.00 h
Vd [2, 8]: 1.85 L/kg
AUC0-t [2, 9]: 722 ng·h/mL
AUC0-∞ [2, 9]: 726 ng·h/mL
Tlast [2, 9]: 10.0 h
solubility ([7]; UHQ water, thermodynamic from solid, water, ambient temperature, slurried 4-5 days, corrected for weight of counter-ion, read-out: Aq solub): 724 µg/mL
Appearance [7]: No change
Soln pH [7]: 8
HPLC purity (%) [7]: 34.7%
Compound: O=C(O)c1ccc(-c2ccc(/C=C3\SC(=S)N(Cc4ccccc4)C3=O)o2)cc1 [LA1 meglumine salt]
growth inhibition of B16-F10 tumors as compared to vehicle control [5]: 58-66%
microscopic examination of liver tissues [6]: minimal to moderate hepatocellular necrosis in one animal
tumor metastasis in lung tissue [6]: Tumor metastasis was observed in lung tissue from one animal

Weight gain (%) [4]: 1.7%
XRPD after stressing [4]: More disordered
Appearance [7]: No change
Soln pH [7]: 7
HPLC purity (%) [7]: 5.58%
Compound: [Ca] [calcium]

Weight gain (%) [4]: −5.5%
Appearance [7]: No change
Soln pH [7]: 8
HPLC purity (%) [7]: 5.31%
Compound: C1CNCCN1 [piperazine]
XRPD after stressing [4]: phase change; also recorded: New pattern (R)

Appearance [7]: Yellow ppt seen
Soln pH [7]: 8
HPLC purity (%) [7]: 89.7%
physical stability in water ([7]; slurrying 4-5 days, XRPD): not physically stable in water
Compound: NC(CO)(CO)CO [tromethamine]
XRPD after stressing [4]: phase change; also recorded: New pattern (S)
